Converted amounts (≈) assume the structure as drawn.
Experiments:
[1] = test system: Staphylococcus aureus; experiment: MIC by agar dilution, SAUR 9213; type: cell-based; conditions: for MIC: Staphylococcus aureus, strain SAUR 9213, read-out: Antibacterial Activity Minimum Inhibitory Concentration SAUR 9213; for Antibacterial Activity Minimum Inhibitory Concentration SAUR 9213: strain SAUR 9213
Source text: (§1) The in vitro activity of compounds of this invention can be assessed by standard testing procedures such as the determination of minimum inhibitory concentration (MIC) by agar dilution as described in “Approved Standard.

[2] = test system: Staphylococcus epidermidis; experiment: MIC by agar dilution, SEPI 30593; type: cell-based; conditions: for MIC: Staphylococcus epidermidis, strain SEPI 30593, read-out: Antibacterial Activity Minimum Inhibitory Concentration SEPI 30593; for Antibacterial Activity Minimum Inhibitory Concentration SEPI 30593: strain SEPI 30593
Source text: as §1

[3] = test system: Enterococcus faecium; experiment: MIC by agar dilution, EFAE 12712; type: cell-based; conditions: for MIC: Enterococcus faecium, strain EFAE 12712, read-out: Antibacterial Activity Minimum Inhibitory Concentration EFAE 12712; for Antibacterial Activity Minimum Inhibitory Concentration EFAE 12712: strain EFAE 12712
Source text: as §1

[4] = test system: Streptococcus pneumoniae; experiment: MIC by agar dilution, SPNE 9912; type: cell-based; conditions: for MIC: Streptococcus pneumoniae, strain SPNE 9912, read-out: Antibacterial Activity Minimum Inhibitory Concentration SPNE 9912; for Antibacterial Activity Minimum Inhibitory Concentration SPNE 9912: strain SPNE 9912
Source text: as §1

[5] = test system: Streptococcus pyogenes; experiment: MIC by agar dilution, SPYO 152; type: cell-based; conditions: for MIC: Streptococcus pyogenes, strain SPYO 152, read-out: Antibacterial Activity Minimum Inhibitory Concentration SPYO 152; for Antibacterial Activity Minimum Inhibitory Concentration SPYO 152: strain SPYO 152
Source text: as §1

[6] = test system: H. influenzae; experiment: MIC by agar dilution, HINF 30063; type: cell-based; conditions: for MIC: Haemophilus influenzae, strain HINF 30063, read-out: Antibacterial Activity Minimum Inhibitory Concentration HINF 30063; for Antibacterial Activity Minimum Inhibitory Concentration HINF 30063: strain HINF 30063
Source text: as §1

[7] = test system: Enterococcus faecalis; experiment: MIC by agar dilution, EFAE 9217; type: cell-based; conditions: for MIC: Enterococcus faecalis, strain EFAE 9217, read-out: Antibacterial Activity Minimum Inhibitory Concentration EFAE 9217; for Antibacterial Activity Minimum Inhibitory Concentration EFAE 9217: strain EFAE 9217
Source text: as §1

[8] = test system: Moraxella catarrhalis; experiment: MIC by agar dilution, MCAT 30607; type: cell-based; conditions: for MIC: Moraxella catarrhalis, strain MCAT 30607, read-out: Antibacterial Activity Minimum Inhibitory Concentration MCAT 30607; for Antibacterial Activity Minimum Inhibitory Concentration MCAT 30607: strain MCAT 30607
Source text: as §1

Row | MIC [1] | MIC [2] | MIC [3] | MIC [4] | MIC [5] | MIC [6] | MIC [7] | MIC [8] | melting point | SMILES | Antibacterial Activity Minimum Inhibitory Concentration SAUR 9213 [1] | Antibacterial Activity Minimum Inhibitory Concentration SEPI 30593 [2] | Antibacterial Activity Minimum Inhibitory Concentration EFAE 12712 [3] | Antibacterial Activity Minimum Inhibitory Concentration SPNE 9912 [4] | Antibacterial Activity Minimum Inhibitory Concentration SPYO 152 [5] | Antibacterial Activity Minimum Inhibitory Concentration HINF 30063 [6] | Antibacterial Activity Minimum Inhibitory Concentration EFAE 9217 [7] | Antibacterial Activity Minimum Inhibitory Concentration MCAT 30607 [8]
1 | 1 µg/mL (≈ 2.41 µM) | 0.25 µg/mL (≈ 0.603 µM) | 0.5 µg/mL (≈ 1.21 µM) | 0.25 µg/mL (≈ 0.603 µM) | 0.25 µg/mL (≈ 0.603 µM) | 2 µg/mL (≈ 4.82 µM) | 0.5 µg/mL (≈ 1.21 µM) | 2 µg/mL (≈ 4.82 µM) | 189 to 190 °C | CCC(=S)NC[C@H]1CN(c2ccc(N3CCS(=N)(=O)CC3)c(F)c2)C(=O)O1 [Example 2, N-({(5S)-3-[3-Fluoro-4-(1-imino-1-oxido-1λ^4,4-thiazinan-4-yl)phenyl]-2-oxo-1,3-oxazolidin-5-yl}methyl)propanethioamide] |  |  |  |  |  |  |  | 
2 | 1 µg/mL (≈ 2.34 µM) | 0.25 µg/mL (≈ 0.586 µM) | 0.5 µg/mL (≈ 1.17 µM) | 0.25 µg/mL (≈ 0.586 µM) | 0.25 µg/mL (≈ 0.586 µM) | 4 µg/mL (≈ 9.38 µM) | 1 µg/mL (≈ 2.34 µM) | 1 µg/mL (≈ 2.34 µM) | 209 to 210 °C (dec.) | N=S1(=O)CCN(c2ccc(N3C[C@H](CNC(=S)C4CC4)OC3=O)cc2F)CC1 [Example 3, N-({(5S)-3-[3-Fluoro-4-(1-imino-1-oxido-1λ^4,4-thiazinan-4-yl)phenyl]-2-oxo-1,3-oxazolidin-5-yl}methyl)cyclopropanecarbothioamide] |  |  |  |  |  |  |  | 
3 |  |  |  |  |  |  |  |  |  | CC(=O)NC[C@H]1CN(c2ccc(C3CCS(=N)(=O)CC3)c(F)c2)C(=O)O1 (single isomer, unassigned) [Example 8] | 8 µg/mL | 1 µg/mL | 2 µg/mL | 0.5 µg/mL | 1 µg/mL | 8 µg/mL | 2 µg/mL | 2 µg/mL
4 |  |  |  |  |  |  |  |  |  | CCOC(=O)CN=S1(=O)CCC(c2ccc(N3C[C@H](CNC(=S)CC)OC3=O)cc2F)CC1 (single isomer, unassigned) [Example 20] | 2 µg/mL | 1 µg/mL | 1 µg/mL | 4 µg/mL | 16 µg/mL | 8 µg/mL | 1 µg/mL | 4 µg/mL
5 |  |  |  |  |  |  |  |  |  | CCC(=S)NC[C@H]1CN(c2ccc(C3CCS(=O)(=NC(C)=O)CC3)c(F)c2)C(=O)O1 (single isomer, unassigned) [Example 14] | 1 µg/mL | 0.5 µg/mL | 1 µg/mL | 0.25 µg/mL | 0.25 µg/mL | 4 µg/mL | 0.5 µg/mL | 2 µg/mL
6 |  |  |  |  |  |  |  |  |  | N=S1(=O)CCC(c2ccc(N3C[C@H](CNC(=S)C4CC4)OC3=O)cc2F)CC1 (single isomer, unassigned) [Example 11] | 1 µg/mL | 0.5 µg/mL | 0.5 µg/mL | 0.25 µg/mL | 0.25 µg/mL | 4 µg/mL | 0.5 µg/mL | 1 µg/mL
7 |  |  |  |  |  |  |  |  |  | C[N-][S+2]1([O-])CCC(c2ccc(N3CC(CNC(=S)C4CC4)OC3=O)cc2F)CC1 [Example 31, N-[((5S)-3-{3-Fluoro-4-[1-(methylimino)-1-oxidohexahydro-1λ^4-thiopyran-4-yl]phenyl}-2-oxo-1,3-oxazolidin-5-yl)methyl]cyclopropanecarbothioamide, E-isomer] | 2 µg/mL | 1 µg/mL | 2 µg/mL | 0.5 µg/mL | 1 µg/mL | 8 µg/mL | 1 µg/mL | 4 µg/mL
8 |  |  |  |  |  |  |  |  |  | CN=S1(=O)CCN(c2ccc(N3C[C@H](CNC(C)=O)OC3=O)cc2F)CC1 [PREP 3, N-({(5S)-3-[3-Fluoro-4-(1-methylimino-1-oxido-1λ^4,4-thiazinan-4-yl)phenyl]-2-oxo-1,3-oxazolidin-5-yl}methyl)acetamide] | 16 µg/mL | 2 µg/mL | 4 µg/mL | 1 µg/mL | 2 µg/mL | 16 µg/mL | 4 µg/mL | 8 µg/mL
9 |  |  |  |  |  |  |  |  |  | CC(=O)NC[C@H]1CN(c2ccc(C3CCS(=N)(=O)CC3)c(F)c2)C(=O)O1 (single isomer, unassigned) [Example 4] | 16 µg/mL | 2 µg/mL | 4 µg/mL | 1 µg/mL | 1 µg/mL | 8 µg/mL | 2 µg/mL | 4 µg/mL
10 |  |  |  |  |  |  |  |  |  | CC(=O)N=S1(=O)CCN(c2ccc(N3C[C@H](CNC(C)=O)OC3=O)cc2F)CC1 [PREP 2, N-({(5S)-3-[3-Fluoro-4-(1-acetylimino-1-oxido-1λ^4,4-thiazinan-4-yl)phenyl]-2-oxo-1,3-oxazolidin-5-yl}methyl)acetamide] | 16 µg/mL | 2 µg/mL | 4 µg/mL | 1 µg/mL | 2 µg/mL | 32 µg/mL | 2 µg/mL | 8 µg/mL
11 |  |  |  |  |  |  |  |  |  | CCC(=S)NC[C@H]1CN(c2ccc(N3CCS(=O)(=NC(=O)OC)CC3)c(F)c2)C(=O)O1 [Example 27, N-[((5S)-3-{3-Fluoro-4-(1-[(methoxycarbonyl)imino]-1-oxido-1λ^4,4-thiazinan-4-yl)phenyl}-2-oxo-1,3-oxazolidin-5-yl)methyl]propanethioamide] | 2 µg/mL | 0.5 µg/mL | 0.5 µg/mL | 0.125 µg/mL | 0.5 µg/mL | 4 µg/mL | 0.5 µg/mL | 8 µg/mL
12 |  |  |  |  |  |  |  |  |  | CC(=S)NC[C@H]1CN(c2ccc(N3CCS(=N)(=O)CC3)c(F)c2)C(=O)O1 [Example 1, N-({(5S)-3-[3-Fluoro-4-(1-imino-1-oxido-1λ^4,4-thiazinan-4-yl)phenyl]-2-oxo-1,3-oxazolidin-5-yl}methyl)ethanethioamide] | 1 µg/mL | 0.5 µg/mL | 1 µg/mL | 0.25 µg/mL | 0.25 µg/mL | 4 µg/mL | 1 µg/mL | 2 µg/mL
13 | 2 µg/mL (≈ 4.54 µM) | 0.5 µg/mL (≈ 1.13 µM) | 1 µg/mL (≈ 2.27 µM) | 0.25 µg/mL (≈ 0.567 µM) | 0.5 µg/mL (≈ 1.13 µM) | 4 µg/mL (≈ 9.08 µM) | 0.5 µg/mL (≈ 1.13 µM) | 2 µg/mL (≈ 4.54 µM) |  | CN=S1(=O)CCN(c2ccc(N3C[C@H](CNC(=S)C4CC4)OC3=O)cc2F)CC1 [Example 26, N-[((5S)-3-{3-Fluoro-4-[1-(methylimino)-1-oxido-1λ^4,4-thiazinan-4-yl]phenyl}-2-oxo-1,3-oxazolidin-5-yl)methyl]cyclopropanecarbothioamide] |  |  |  |  |  |  |  | 

Row | SMILES | MIC [1] | MIC [2] | MIC [3] | MIC [4] | MIC [5] | MIC [6] | MIC [7] | MIC [8] | melting point | Antibacterial Activity Minimum Inhibitory Concentration SAUR 9213 [1] | Antibacterial Activity Minimum Inhibitory Concentration SEPI 30593 [2] | Antibacterial Activity Minimum Inhibitory Concentration EFAE 12712 [3] | Antibacterial Activity Minimum Inhibitory Concentration SPNE 9912 [4] | Antibacterial Activity Minimum Inhibitory Concentration SPYO 152 [5] | Antibacterial Activity Minimum Inhibitory Concentration HINF 30063 [6] | Antibacterial Activity Minimum Inhibitory Concentration EFAE 9217 [7] | Antibacterial Activity Minimum Inhibitory Concentration MCAT 30607 [8]
14 | CCC(=S)NCC1CN(c2ccc(C3CC[S+2]([O-])([N-]C(=O)OC)CC3)c(F)c2)C(=O)O1 [Example 19, N-({(5S)-3-[3-Fluoro-4-(1-[(methoxycarbonyl)imino]-1-oxidohexahydro-1λ^4-thiopyran-4-yl)phenyl]-2-oxo-1,3-oxazolidin-5-yl}methyl)propanethioamide, Z-isomer] | 1 µg/mL (≈ 2.12 µM) | 0.5 µg/mL (≈ 1.06 µM) | 1 µg/mL (≈ 2.12 µM) | 0.25 µg/mL (≈ 0.53 µM) | 0.25 µg/mL (≈ 0.53 µM) | 2 µg/mL (≈ 4.24 µM) |  | 2 µg/mL (≈ 4.24 µM) | 217 to 218 °C |  |  |  |  |  |  |  | 
